Source: paper PMC7179259, “Safety, Tolerability, Pharmacokinetics, and Antimalarial Activity of the Novel Plasmodium Phosphatidylinositol 4-Kinase Inhibitor MMV390048 in Healthy Volunteers” (Antimicrobial Agents and Chemotherapy, 2020)
Where two headings read alike, the source gives them in different places.

Key:
[1] = First-in-human single-ascending-dose study: plasma pharmacokinetics; type: in vivo; conditions: for half-life / Tmax / AUC(0-inf) / Cmax / Vd/F: human, plasma; for Vd/F: read-out: Vz/F
Description: (i) First-in-human study. The study was conducted in five fasted cohorts (5, 20, 40, 80, and 120 mg) and one fed 40-mg cohort. The initial dose of 5 mg was chosen in agreement with guidelines on dose selection for first-in-human clinical studies ([15], [16]) and was based on the no-observed-adverse-event level for the most sensitive species observed in preclinical toxicology studies. Doses administered to subsequent cohorts were determined a priori after consideration of interim human pharmacokinetic and safety data.
All subjects in the fasted cohorts were dosed on day 1 after a fasting period of ≥8 h. Water was prohibited from 2 h predose and then allowed ad libitum from 2 h postdose, and standardized meals were provided from 4 h postdose. In the first two cohorts (5 and 20 mg), a sentinel subcohort (n = 2) was dosed on day 1. The safety review team reviewed safety and pharmacokinetic data of these subjects up to day 3 before dosing the rest of these two cohorts and up to day 19 for all cohorts before dose escalation. […] Selected subjects from the fasted cohorts then received 40 mg in a fed state to evaluate the effect of food on the tolerability and pharmacokinetic profile of MMV390048. […] The predose breakfast was in line with FDA guidelines ([13]) and was composed of approximately 800 to 1,000 calories (cal), with 150, 250, and 500 to 600 cal from protein, carbohydrate, and fat, respectively.
(§1) Blood samples from the three studies were analyzed at the University of Cape Town Division of Clinical Pharmacology Laboratory. MMV390048 was extracted from plasma using a protein precipitation procedure and analyzed using a liquid chromatography-tandem mass spectrometry assay. The precision (total assay coefficients of variation) for MMV390048 during sample analysis was less than 8% at all quality control levels, including the limit of quantification, which was 0.5 ng ml^−1. The full details of the assay are included in the supplemental material.
(§2) Noncompartmental pharmacokinetic analysis was performed using Phoenix WinNonlin Pro version 6.3 (Certara L.P., St. Louis, MO, USA) for the first-in-human and the formulation optimization studies, and using R version 3.2.0 for the IBSM study. Pharmacokinetic endpoints were the peak plasma concentration (Cmax), time at which Cmax is reached (Tmax), area under the concentration-time curve from 0 h to infinity (AUC0–inf), elimination half-life (t½), apparent clearance (CL/F), and apparent volume of distribution (Vz/F).

[2] = Induced blood-stage malaria (IBSM) study: plasma pharmacokinetics; type: in vivo; conditions: human; for AUC(0-t): oral, 20 mg
Description: (§3) (ii) IBSM study. The dose of MMV390048 chosen (20 mg) was based on the pharmacokinetic, safety, and tolerability data available from the first-in-human study at the time the IBSM study commenced (when 5- and 20-mg-dose cohorts of the first-in-human study had been completed). This dose was below the estimated single dose required to achieve complete cure calculated from preclinical studies (80 to 100 mg) since recrudescence allows for characterization of the pharmacokinetic/pharmacodynamic relationship between MMV390048 and P. falciparum parasitemia. Subjects were inoculated intravenously on day 0 with erythrocytes infected with ∼1,800 viable chloroquine-sensitive P. falciparum 3D7 parasites ([17]). Fasted (≥8 h) subjects were dosed with MMV390048 when they reached the parasitemia threshold for treatment (∼1,000 parasites ml^−1) and were followed up until the end-of-study visit on day 28.
as §1, §2

P. falciparum 3D7 = assay: Induced blood-stage malaria (IBSM) study: antimalarial activity (parasitemia by qPCR); type: in vivo, Plasmodium falciparum; conditions: 20 mg single dose
Description: as §3
Parasitemia was monitored by collecting blood samples and performing quantitative PCR (qPCR) targeting the gene encoding P. falciparum 18S rRNA ([20]). Blood samples were collected daily from day 4 until parasites were detectable; twice daily until MMV390048 dosing; before MMV390048 dosing and 2, 4, 8, 12, 16, 20, 24, 30, 36, 48, 60, and 72 h after MMV390048 dosing; twice daily until parasitemia was not detected over a 48-h period; 3 times per week until artemether-lumefantrine treatment; and then at the end of the study (day 28).

[3] = po, 5 mg, single oral 5 mg fasted, powder-in-bottle, n = 6, geometric mean (CV %)
[4] = po, 20 mg, single oral 20 mg fasted, powder-in-bottle, n = 6, geometric mean (CV %)
[5] = po, 40 mg, single oral 40 mg FED (high-fat breakfast), powder-in-bottle, n = 6, geometric mean (CV %)
[6] = po, 40 mg, single oral 40 mg fasted, powder-in-bottle, n = 6, geometric mean (CV %)
[7] = po, 80 mg, single oral 80 mg fasted, powder-in-bottle, n = 6, geometric mean (CV %)
[8] = po, 120 mg, single oral 120 mg fasted, powder-in-bottle, n = 5, geometric mean (CV %)
[9] = single oral 20 mg fasted, powder-in-bottle, n = 6, geometric mean (CV %)

Compound: CS(=O)(=O)c1ccc(-c2cnc(N)c(-c3ccc(C(F)(F)F)nc3)c2)cc1 [MMV390048]
- half-life ([1]; oral, all cohorts, powder-in-bottle, read-out: elimination half-life): > 149 h
- Tmax ([1]; oral, fasted cohorts, read-out: median time of maximum concentration (Tmax)): 1 to 2.5 h
- AUC(0-inf) [1, 3]: 2140 ng·h/mL
- Cmax [1, 3]: 15.6 ng/mL
- Vd/F [1, 3]: 520 L
- half-life ([1]; po, 5 mg, single oral 5 mg fasted, powder-in-bottle, n = 6, geometric mean (CV %), read-out: t1/2 (converted)): 154 h
- Tmax ([1]; po, 5 mg, single oral 5 mg fasted, powder-in-bottle, n = 6, median (range), read-out: Tmax): 1 h
- AUC(0-inf) [1, 4]: 33300 ng·h/mL
- Cmax [1, 4]: 136 ng/mL
- Vd/F [1, 4]: 266 L
- half-life ([1]; po, 20 mg, single oral 20 mg fasted, powder-in-bottle, n = 6, geometric mean (CV %), read-out: t1/2 (converted)): 306 h
- Tmax ([1]; po, 20 mg, single oral 20 mg fasted, powder-in-bottle, n = 6, median (range), read-out: Tmax): 2 h
- AUC(0-inf) [1, 5]: 34500 ng·h/mL
- Cmax [1, 5]: 155 ng/mL
- Vd/F [1, 5]: 373 L
- half-life ([1]; po, 40 mg, single oral 40 mg FED (high-fat breakfast), powder-in-bottle, n = 6, geometric mean (CV %), read-out: t1/2 (converted)): 223 h
- Tmax ([1]; po, 40 mg, single oral 40 mg FED (high-fat breakfast), powder-in-bottle, n = 6, median (range), read-out: Tmax): 4 h
- AUC(0-inf) [1, 6]: 17600 ng·h/mL
- Cmax [1, 6]: 74.4 ng/mL
- Vd/F [1, 6]: 624 L
- half-life ([1]; po, 40 mg, single oral 40 mg fasted, powder-in-bottle, n = 6, geometric mean (CV %), read-out: t1/2 (converted)): 190 h
- Tmax ([1]; po, 40 mg, single oral 40 mg fasted, powder-in-bottle, n = 6, median (range), read-out: Tmax): 2.5 h
- AUC(0-inf) [1, 7]: 62000 ng·h/mL
- Cmax [1, 7]: 238 ng/mL
- Vd/F [1, 7]: 444 L
- half-life ([1]; po, 80 mg, single oral 80 mg fasted, powder-in-bottle, n = 6, geometric mean (CV %), read-out: t1/2 (converted)): 239 h
- Tmax ([1]; po, 80 mg, single oral 80 mg fasted, powder-in-bottle, n = 6, median (range), read-out: Tmax): 1 h
- AUC(0-inf) [1, 8]: 82600 ng·h/mL
- Cmax [1, 8]: 518 ng/mL
- Vd/F [1, 8]: 432 L
- half-life ([1]; po, 120 mg, single oral 120 mg fasted, powder-in-bottle, n = 5, geometric mean (CV %), read-out: t1/2 (converted)): 206 h
- Tmax ([1]; po, 120 mg, single oral 120 mg fasted, powder-in-bottle, n = 5, median (range), read-out: Tmax): 1 h
- CL/F ([1]; single oral 5 mg fasted, powder-in-bottle, n = 6, geometric mean (CV %)): 2.3 (76.3) liters h^−1
- CL/F [1, 9]: 0.6 (17.1) liters h^−1
- CL/F ([1]; single oral 40 mg FED (high-fat breakfast), powder-in-bottle, n = 6, geometric mean (CV %)): 1.2 (67.5) liters h^−1
- CL/F ([1]; single oral 40 mg fasted, powder-in-bottle, n = 6, geometric mean (CV %)): 2.3 (86.8) liters h^−1
- CL/F ([1]; single oral 80 mg fasted, powder-in-bottle, n = 6, geometric mean (CV %)): 1.3 (46.0) liters h^−1
- CL/F ([1]; single oral 120 mg fasted, powder-in-bottle, n = 5, geometric mean (CV %)): 1.5 (165.8) liters h^−1
- AUC(0-t) ([2]; the 4 subjects who recrudesced 2 days after treatment): 6000 to 9000 ng·h/mL
- AUC(0-t) ([2]; the two subjects who recrudesced 7 days after treatment): ~12000 ng·h/mL
- AUC(0-inf) [2, 9]: 15900 ng·h/mL
- Cmax [2, 9]: 106 ng/mL
- Tmax ([2]; single oral 20 mg fasted, powder-in-bottle, n = 6, median (range)): 2 h
- time to recrudescence after MMV390048 dosing (P. falciparum 3D7; n = 2 subjects (highest exposure)): 7 days
- time to recrudescence after MMV390048 dosing (P. falciparum 3D7; n = 4 subjects): 2 days
- parasitemia following administration (P. falciparum 3D7; n = 6): decreased initially in all subjects
- recrudescence (P. falciparum 3D7; n = 6): observed in all subjects
